Experimental data published in patent US20230348418A1, “ISOINDOLINONE COMPOUNDS” (Monte Rosa Therapeutics, Inc., priority 2021, published 2023).

How the values were obtained:
NCI-H526 = assay: N-Myc-driven mouse xenograft model, human cell line NCI-H526 (FIG. 3D); format: in vivo
NCI-H1770 = assay: N-Myc-driven mouse xenograft model, human cell line NCI-H1770 (FIG. 3C); format: in vivo
SALL4 = target: T1, SALL4 (Homo sapiens, UniProt Q9UJQ4); assay: SALL4 degradation in treated cells (FIG. 1A); format: cell-based; conditions: concentrations up to 30 µM
T1 construct: endogenous in cells

[1] = system: NCI-H1155, ABC-1 and EBC-1, NCI-H2023 cell lines; assay: Viability assay (CellTiter-Glo) in N-Myc high and N-Myc low NSCLC cell lines; format: cell-based; conditions: 72 hours
Method: The anti-proliferative activity of compound 10 was tested on representative N-Myc high and N-Myc low cell lines (NCI-H1155, ABC-1 and EBC-1, NCI-H2023, respectively) following treatment with compound for 72 hours. Cells were sub-cultures as recommended by the providers (ATCC, DSMZ) and incubated at 37° C., 5% CO2. All cells were authenticated and confirmed by Short Tandem Repeat (STR) profiling. Briefly, cells were seeded to the appropriate density to allow logarithmic growth over the assay period in 96-well opaque-walled clear bottom plates (from Corning, Cat. No. 3903, Lot. No. 16419061; 100 μL total volume) and incubated overnight. […] Cell viability was assessed using the CellTiter-Glo assay kit as recommended by the Manufacturer (Promega, Cat. No. G7558, Lot. No. 0000385738) and measurements performed on the EnSpire multimode plate reader (Perkin Elmer). EC50 values were determined using Prism8 (GraphPad) and the asymmetric (five-parameter) equation and least squares fit. GSPT1 levels were assessed in the NCI-H1155 and ABC-1 cell lines by densitometry analysis following treatment with compound 10 for 6 hours and western blotting analysis. […] For chemiluminescence and colorimetric signals “optimal automatic exposure” settings (3×3 binning) were employed while fluorescence was detected using 1-4 seconds exposure time to achieve best GAPDH signals and avoid overexposure. […]

GSPT1 = GSPT1 (Homo sapiens, UniProt P15170+Q96SW2); assay: relative levels of GSPT1 versus concentration (FIG. 2B); format: cell-based; parameters: endogenous in cells; host or cells: MM1S (ATCC CRL-2974); conditions: cell line not named
Method: GSPT1 was degraded by compound 10 after six hours of treatment in high N-Myc NCI-H1155 and ABC-1 cells with a DC50 of 3 nM and 22 nM, respectively (x-axys represents […]M concentration of compound 10; y-axis represents the viability in %).

[2] = 6 mg/kg PO, five days on and nine days off

T1 sequence (Q96SW2 whole entry partner): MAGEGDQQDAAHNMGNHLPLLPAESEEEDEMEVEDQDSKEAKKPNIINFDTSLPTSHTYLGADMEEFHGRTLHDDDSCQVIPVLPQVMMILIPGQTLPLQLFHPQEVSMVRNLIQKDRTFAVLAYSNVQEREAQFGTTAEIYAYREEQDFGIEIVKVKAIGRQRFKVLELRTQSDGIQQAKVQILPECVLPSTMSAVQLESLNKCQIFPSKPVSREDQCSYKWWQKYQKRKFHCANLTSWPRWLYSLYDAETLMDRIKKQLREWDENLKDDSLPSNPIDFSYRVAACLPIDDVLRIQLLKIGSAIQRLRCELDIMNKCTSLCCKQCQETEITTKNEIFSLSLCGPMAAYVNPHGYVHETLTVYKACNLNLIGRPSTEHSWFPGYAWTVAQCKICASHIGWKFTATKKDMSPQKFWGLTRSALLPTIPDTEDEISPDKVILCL
T1 sequence (Q16531 2-1140 partner limits assumed): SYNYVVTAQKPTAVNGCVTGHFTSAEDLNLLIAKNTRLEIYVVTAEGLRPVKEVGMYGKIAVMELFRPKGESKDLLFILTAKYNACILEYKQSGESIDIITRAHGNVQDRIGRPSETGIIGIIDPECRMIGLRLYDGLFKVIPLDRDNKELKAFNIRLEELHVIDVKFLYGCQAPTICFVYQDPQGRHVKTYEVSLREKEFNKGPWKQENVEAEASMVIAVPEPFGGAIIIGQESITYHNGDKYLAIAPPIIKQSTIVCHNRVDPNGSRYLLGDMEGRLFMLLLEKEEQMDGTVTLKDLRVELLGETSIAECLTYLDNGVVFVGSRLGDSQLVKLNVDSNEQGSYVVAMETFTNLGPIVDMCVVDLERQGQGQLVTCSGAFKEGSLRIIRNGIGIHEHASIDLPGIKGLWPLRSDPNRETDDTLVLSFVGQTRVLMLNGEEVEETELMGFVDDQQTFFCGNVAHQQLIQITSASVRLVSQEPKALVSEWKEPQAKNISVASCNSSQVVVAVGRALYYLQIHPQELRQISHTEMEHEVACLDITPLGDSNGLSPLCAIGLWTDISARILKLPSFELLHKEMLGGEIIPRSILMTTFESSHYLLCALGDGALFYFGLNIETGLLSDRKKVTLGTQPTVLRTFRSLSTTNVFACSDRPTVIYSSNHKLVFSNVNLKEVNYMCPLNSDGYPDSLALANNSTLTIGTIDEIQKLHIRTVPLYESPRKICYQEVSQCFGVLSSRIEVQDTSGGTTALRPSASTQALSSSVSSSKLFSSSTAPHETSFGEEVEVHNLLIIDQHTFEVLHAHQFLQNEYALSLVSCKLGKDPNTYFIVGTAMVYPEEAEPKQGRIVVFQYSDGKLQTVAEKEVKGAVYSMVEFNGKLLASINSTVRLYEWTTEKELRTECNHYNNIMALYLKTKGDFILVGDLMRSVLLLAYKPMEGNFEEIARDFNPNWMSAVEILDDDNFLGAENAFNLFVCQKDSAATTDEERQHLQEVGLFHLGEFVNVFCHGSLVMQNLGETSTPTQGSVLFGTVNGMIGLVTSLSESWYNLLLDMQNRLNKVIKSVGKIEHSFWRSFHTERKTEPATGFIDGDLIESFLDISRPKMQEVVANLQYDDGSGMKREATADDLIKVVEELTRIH
T1 sequence (Q9UJQ4 whole entry): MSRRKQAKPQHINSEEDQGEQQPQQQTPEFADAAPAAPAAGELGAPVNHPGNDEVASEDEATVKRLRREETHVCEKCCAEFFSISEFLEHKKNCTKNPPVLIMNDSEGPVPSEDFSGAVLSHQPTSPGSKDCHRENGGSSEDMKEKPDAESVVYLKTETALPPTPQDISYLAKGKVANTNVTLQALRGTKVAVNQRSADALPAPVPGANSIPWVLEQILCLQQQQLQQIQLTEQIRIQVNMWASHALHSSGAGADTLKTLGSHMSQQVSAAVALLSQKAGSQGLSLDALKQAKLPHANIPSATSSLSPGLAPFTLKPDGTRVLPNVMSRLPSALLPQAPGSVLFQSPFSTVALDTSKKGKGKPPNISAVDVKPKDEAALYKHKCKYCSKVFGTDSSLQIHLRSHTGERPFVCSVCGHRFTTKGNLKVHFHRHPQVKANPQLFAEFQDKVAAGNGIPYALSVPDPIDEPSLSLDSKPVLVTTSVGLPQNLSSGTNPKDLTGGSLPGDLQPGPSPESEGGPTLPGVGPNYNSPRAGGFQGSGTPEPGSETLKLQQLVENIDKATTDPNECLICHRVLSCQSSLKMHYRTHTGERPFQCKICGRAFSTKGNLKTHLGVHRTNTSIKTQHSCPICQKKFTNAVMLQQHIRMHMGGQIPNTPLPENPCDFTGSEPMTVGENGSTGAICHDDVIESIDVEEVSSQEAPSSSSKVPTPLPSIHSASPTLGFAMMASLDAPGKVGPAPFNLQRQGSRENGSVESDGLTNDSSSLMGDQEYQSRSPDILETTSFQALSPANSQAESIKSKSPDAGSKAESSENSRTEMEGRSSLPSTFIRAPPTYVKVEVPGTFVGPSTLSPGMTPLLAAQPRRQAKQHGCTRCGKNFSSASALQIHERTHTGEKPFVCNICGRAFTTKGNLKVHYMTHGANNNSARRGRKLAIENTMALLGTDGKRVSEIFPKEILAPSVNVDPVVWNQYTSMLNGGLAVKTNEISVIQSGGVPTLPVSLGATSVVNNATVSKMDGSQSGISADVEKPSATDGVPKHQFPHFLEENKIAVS
Sequence of GSPT1 (P15170 whole entry): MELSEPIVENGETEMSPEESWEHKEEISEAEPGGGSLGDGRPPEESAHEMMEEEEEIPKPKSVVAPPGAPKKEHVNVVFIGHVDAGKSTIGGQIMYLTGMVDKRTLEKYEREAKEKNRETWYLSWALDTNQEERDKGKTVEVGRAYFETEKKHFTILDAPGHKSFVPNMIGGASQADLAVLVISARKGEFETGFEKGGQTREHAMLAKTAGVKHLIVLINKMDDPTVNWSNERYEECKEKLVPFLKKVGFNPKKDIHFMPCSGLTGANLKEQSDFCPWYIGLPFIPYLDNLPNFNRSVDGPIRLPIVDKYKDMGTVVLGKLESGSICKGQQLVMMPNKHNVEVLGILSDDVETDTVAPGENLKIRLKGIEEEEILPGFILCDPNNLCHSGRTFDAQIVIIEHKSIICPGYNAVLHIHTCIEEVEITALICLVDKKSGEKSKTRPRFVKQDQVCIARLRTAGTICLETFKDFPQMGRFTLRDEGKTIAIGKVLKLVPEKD
Sequence of GSPT1 (Q96SW2 whole entry): as the sequence (Q96SW2 whole entry partner) above
Sequence of GSPT1 (Q16531 2-1140 partner limits assumed): as the sequence (Q16531 2-1140 partner limits assumed) above

## Cc1ccc(NC(=O)OCc2ccc3c(c2)C(=O)N(C2CCC(=O)NC2=O)C3)cc1Cl (centres unmarked) [Compound 10]
NCI-H526; 3 mg/kg once daily, PO
  tumor size (tumor volume): tumor size decreased and remained so until the end of the study
NCI-H526; [2]
  tumor size (tumor volume): tumor size decreased and remained so until the end of the study
NCI-H526; oral administration, NCI-H526 xenograft
  body weight: no body weight loss observed
NCI-H526; oral administration, NCI-H526 xenograft, overall
  tumor growth (tumor volume): tumor growth inhibition
NCI-H1770; 3 mg/kg once daily, PO
  tumor size (tumor volume): tumor size decreased and remained so until the end of the study
NCI-H1770; [2]
  tumor size (tumor volume): tumor size decreased and remained so until the end of the study
NCI-H1770; oral administration, NCI-H1770 xenograft
  body weight: no body weight loss observed
NCI-H1770; oral administration, NCI-H1770 xenograft, overall
  tumor growth (tumor volume): tumor growth inhibition
SALL4
  degradation of SALL4: no induction of degradation
[1]
  Sensitivity (anti-proliferative activity) versus N-Myc expression (FIG. 2A): sensitivity correlated with the expression of N-Myc
GSPT1
  GSPT1 degradation versus concentration: concentration dependent manner
